{"source": "patent EP2253617A1", "about": "“Halogenated compounds as pesticides” (Bayer CropScience AG, priority 2009, dated 2010)"}
{"tested_on": "Ctenocephalides felis", "test": "Ctenocephalides felis oral test (CTECFE)", "assay_type": "in vivo", "conditions": "100 ppm in citrated cattle blood, oral uptake, adult fleas, after 2 days; 100 % = all fleas killed", "method": "Ctenocephalides felis oral (CTECFE)\nLösungsmittel: 1 Gewichtsteil Dimethylsulfoxid\nZwecks Herstellung einer zweckmäßigen Wirkstoffzubereitung vermischt man 10 mg Wirkstoff mit 0,5 ml Dimethylsulfoxid. Ein Teil des Konzentrats wird mit citriertem Rinderblut verdünnt und die gewünschte Konzentration hergestellt.\n20 nüchterne adulte Flöhe (Ctenocephalides felis) werden in eine Kammer eingesetzt, die oben und unten mit Gaze verschlossen ist. Auf die Kammer wird ein Metallzylinder gestellt, dessen Unterseite mit Parafilm verschlossen ist. Der Zylinder enthält die Blut-Wirkstoffzubereitung, die von den Flöhen durch die Parafilmmembran aufgenommen werden kann. Nach 2 Tagen wird die Abtötung in % bestimmt. Dabei bedeutet 100 %, dass alle Flöhe abgetötet wurden; 0 % bedeutet, dass kein Floh abgetötet wurde.", "units": {"Wirkung (Abtötung in %)": "%"}}
{"smiles": "Cn1nc(C(F)(F)C(F)(F)F)c(C(F)(F)F)c1C(=O)Nc1ccc(Cl)c(C(=O)Nc2ccc(F)cc2F)c1", "note": "[Ia-22]", "Wirkung (Abtötung in %)": 100}
{"smiles": "Cn1nc(C(F)(F)C(F)(F)F)c(C(F)(F)F)c1C(=O)Nc1ccc(Cl)c(C(=O)Nc2ccc(F)cc2)c1", "note": "[Ia-17]", "Wirkung (Abtötung in %)": 90}
{"smiles": "Cn1nc(C(F)(F)C(F)(F)F)c(C(F)(F)F)c1C(=O)Nc1ccc(Cl)c(C(=O)Nc2cc(Cl)ccn2)c1", "note": "[Ia-26]", "Wirkung (Abtötung in %)": 80}
{"tested_on": "Lucilia cuprina Larven", "test": "Lucilia cuprina test (LUCICU)", "assay_type": "in vivo", "conditions": "100 ppm, treated horse meat, larvae, after 2 days; 100 % = all larvae killed", "method": "Lucilia cuprina-Test (LUCICU)\n(§1) Lösungsmittel: Dimethylsulfoxid\nZur Herstellung einer zweckmäßigen Wirkstoffzubereitung vermischt man 10 mg Wirkstoff mit 0,5 ml Dimethylsulfoxid und verdünnt das Konzentrat mit Wasser auf die gewünschte Konzentration.Gefäße, die Pferdefleisch enthalten, das mit der Wirkstoffzubereitung der gewünschten Konzentration behandelt wurde, werden mit Lucilia cuprina Larven besetzt.\nNach 2 Tagen wird die Abtötung in % bestimmt. Dabei bedeutet 100 %, dass alle Larven abgetötet wurden; 0 % bedeutet, dass keine Larven abgetötet wurden.", "units": {"Wirkung (Abtötung in %)": "%"}}
{"smiles": "Cn1nc(C(F)(F)C(F)(F)F)c(C(F)(F)F)c1C(=O)Nc1ccc(Cl)c(C(=O)Nc2ccc(F)cc2F)c1", "note": "[Ia-22]", "Wirkung (Abtötung in %)": 100}
{"smiles": "Cn1nc(C(F)(F)C(F)(F)F)c(C(F)(F)F)c1C(=O)Nc1ccc(Cl)c(C(=O)Nc2ccc(F)cc2)c1", "note": "[Ia-17]", "Wirkung (Abtötung in %)": 100}
{"smiles": "Cn1nc(C(F)(F)C(F)(F)F)c(C(F)(F)F)c1C(=O)Nc1ccc(Cl)c(C(=O)Nc2cc(Cl)ccn2)c1", "note": "[Ia-26]", "Wirkung (Abtötung in %)": 100}
{"tested_on": "Musca domestica Adulten", "test": "Musca domestica test (MUSCDO)", "assay_type": "in vivo", "conditions": "100 ppm, treated sponge, adults, after 2 days; 100 % = all flies killed", "method": "Musca domestica-Test (MUSCDO)\nas §1\nZur Herstellung einer zweckmäßigen Wirkstoffzubereitung vermischt man 10 mg Wirkstoff mit 0,5 ml Dimethylsulfoxid und verdünnt das Konzentrat mit Wasser auf die gewünschte Konzentration. Gefäße, die einen Schwamm enthalten, der mit der Wirkstoffzubereitung der gewünschten Konzentration behandelt wurde, werden mit Musca domestica Adulten besetzt.\nNach 2 Tagen wird die Abtötung in % bestimmt. Dabei bedeutet 100 %, dass alle Fliegen abgetötet wurden; 0 % bedeutet, dass keine Fliegen abgetötet wurden.", "units": {"Wirkung (Abtötung in %)": "%"}}
{"smiles": "Cn1nc(C(F)(F)C(F)(F)F)c(C(F)(F)F)c1C(=O)Nc1ccc(Cl)c(C(=O)Nc2ccc(F)cc2F)c1", "note": "[Ia-22]", "Wirkung (Abtötung in %)": 90}
{"smiles": "Cn1nc(C(F)(F)C(F)(F)F)c(C(F)(F)F)c1C(=O)Nc1ccc(Cl)c(C(=O)Nc2ccc(F)cc2)c1", "note": "[Ia-17]", "Wirkung (Abtötung in %)": 100}
{"smiles": "Cn1nc(C(F)(F)C(F)(F)F)c(C(F)(F)F)c1C(=O)Nc1ccc(Cl)c(C(=O)Nc2cc(Cl)ccn2)c1", "note": "[Ia-26]", "Wirkung (Abtötung in %)": 80}
{"tested_on": "Boophilus microplus", "test": "Boophilus microplus test (BOOPMI injection)", "assay_type": "in vivo", "conditions": "20 µg / Tier, injection into the abdomen, after 7 days; 100 % = no tick laid fertile eggs", "method": "Boophilus microplus -Test (BOOPMI Injektion)\nas §1\nZur Herstellung einer zweckmäßigen Wirkstoffzubereitung vermischt man 10 mg Wirkstoff mit 0,5 ml Lösungsmittel und verdünnt das Konzentrat mit Wasser auf die gewünschte Konzentration. Die Wirkstofflösung wird in das Abdomen (Boophilus microplus) injiziert, die Tiere werden in Schalen überführt und in einem klimatisierten Raum aufbewahrt. Die Wirkungskontrolle erfolgt auf Ablage fertiler Eier. Nach 7 Tagen wird die Wirkung in % bestimmt. Dabei bedeutet 100%, dass keine Zecke fertile Eier gelegt hat.", "units": {"Wirkung": "%"}}
{"smiles": "Cn1nc(C(F)(F)C(F)(F)F)c(C(F)(F)F)c1C(=O)Nc1ccc(Cl)c(C(=O)Nc2ccc(F)cc2F)c1", "note": "[Ia-22]", "Wirkung": 100}
{"smiles": "Cn1nc(C(F)(F)C(F)(F)F)c(C(F)(F)F)c1C(=O)Nc1ccc(Cl)c(C(=O)Nc2ccc(F)cc2)c1", "note": "[Ia-17]", "Wirkung": 100}
{"smiles": "Cn1nc(C(F)(F)C(F)(F)F)c(C(F)(F)F)c1C(=O)Nc1ccc(Cl)c(C(=O)Nc2cc(Cl)ccn2)c1", "note": "[Ia-26]", "Wirkung": 100}
{"tested_on": "Phaedon cochleariae", "test": "Phaedon test (PHAECO spray treatment)", "assay_type": "in vivo", "conditions": "500 g/ha, sprayed Chinese cabbage leaf discs, larvae, after 7 days; 100 % = all beetle larvae killed", "text": "Phaedon-Test (PHAECO Spritzbehandlung)\n(§2) • Lösungsmittel: 78,0 GewichtsteileAceton 1,5 Gewichtsteile Dimethylformamid • Emulgator: 0,5 Gewichtsteile Alkylarylpolyglykolether\n(§3) Zur Herstellung einer zweckmäßigen Wirkstoffzubereitung vermischt man 1 Gewichtsteil Wirkstoff mit den angegebenen Mengen Lösungsmittel und Emulgator und verdünnt das Konzentrat mit emulgatorhaltigem Wasser auf die gewünschte Konzentration.\nChinakohlblattscheiben (Brassica pekinensis) werden mit einer Wirkstoffzubereitung der gewünschten Konzentration gespritzt und nach dem Abtrocknen mit Larven des Meerrettichblattkäfers (Phaedon cochleariae) besetzt.\nNach 7 Tagen wird die Wirkung in % bestimmt. Dabei bedeutet 100 %, dass alle Käferlarven abgetötet wurden; 0 % bedeutet, dass keine Käferlarven abgetötet wurden.", "units": {"Wirkung": "%"}}
{"smiles": "Cn1nc(C(F)(F)C(F)(F)F)c(C(F)(F)F)c1C(=O)Nc1ccc(Cl)c(C(=O)Nc2ccc(F)cc2F)c1", "note": "[Ia-22]", "Wirkung": 100}
{"smiles": "Cn1nc(C(F)(F)C(F)(F)F)c(C(F)(F)F)c1C(=O)Nc1ccc(Cl)c(C(=O)Nc2ccc(F)cc2)c1", "note": "[Ia-17]", "Wirkung": 100}
{"smiles": "Cn1nc(C(F)(F)C(F)(F)F)c(C(F)(F)F)c1C(=O)Nc1ccc(Cl)c(C(=O)Nc2cc(Cl)ccn2)c1", "note": "[Ia-26]", "Wirkung": 100}
{"tested_on": "Spodoptera frugiperda", "test": "Spodoptera frugiperda test (SPODFR spray treatment)", "assay_type": "in vivo", "conditions": "500 g/ha, sprayed maize leaf discs, caterpillars, after 7 days; 100 % = all caterpillars killed", "text": "Spodoptera frugiperda-Test (SPODFR Spritzbehandlung)\nas §2, §3\nMaisblattscheiben (Zea mays) werden mit einer Wirkstoffzubereitung der gewünschten Konzentration gespritzt und nach dem Abtrocknen mit Raupen des Heerwurms (Spodoptera frugiperda) besetzt.Nach 7 Tagen wird die Wirkung in % bestimmt. Dabei bedeutet 100 %, dass alle Raupen abgetötet wurden; 0 % bedeutet, dass keine Raupe abgetötet wurde.", "units": {"Wirkung": "%"}}
{"smiles": "Cn1nc(C(F)(F)C(F)(F)F)c(C(F)(F)F)c1C(=O)Nc1ccc(Cl)c(C(=O)Nc2ccc(F)cc2F)c1", "note": "[Ia-22]", "Wirkung": 100}
{"smiles": "Cn1nc(C(F)(F)C(F)(F)F)c(C(F)(F)F)c1C(=O)Nc1ccc(Cl)c(C(=O)Nc2ccc(F)cc2)c1", "note": "[Ia-17]", "Wirkung": 100}
{"smiles": "Cn1nc(C(F)(F)C(F)(F)F)c(C(F)(F)F)c1C(=O)Nc1ccc(Cl)c(C(=O)Nc2cc(Cl)ccn2)c1", "note": "[Ia-26]", "Wirkung": 100}
{"tested_on": "Tetranychus urticae", "test": "not given", "assay_type": "in vivo", "conditions": "foliar, 500 g/ha, 144 h", "text": "Tetranychus-Test, OP-resistent (TETRUR Spritzbehandlung)\nas §2, §3\nBohnenblattscheiben (Phaseolus vulgaris), die von allen Stadien der Gemeinen Spinnmilbe (Tetranychus urticae) befallen sind, werden mit einer Wirkstoffzubereitung der gewünschten Konzentration gespritzt.\nNach 6 Tagen wird die Wirkung in % bestimmt. Dabei bedeutet 100 %, dass alle Spinnmilben abgetötet wurden; 0 % bedeutet, dass keine Spinnmilben abgetötet wurden.", "units": {"Wirkung": "%"}}
{"smiles": "Cn1nc(C(F)(F)C(F)(F)F)c(C(F)(F)F)c1C(=O)Nc1ccc(Cl)c(C(=O)Nc2ccc(F)cc2F)c1", "note": "[Ia-22]", "Wirkung": 100}
{"smiles": "Cn1nc(C(F)(F)C(F)(F)F)c(C(F)(F)F)c1C(=O)Nc1ccc(Cl)c(C(=O)Nc2ccc(F)cc2)c1", "note": "[Ia-17]", "Wirkung": 80}
{"smiles": "Cn1nc(C(F)(F)C(F)(F)F)c(C(F)(F)F)c1C(=O)Nc1ccc(Cl)c(C(=O)Nc2cc(Cl)ccn2)c1", "note": "[Ia-26]", "Wirkung": 90}
{"tested_on": "not listed separately", "test": "physchem", "conditions": "not given"}
{"smiles": "Cn1nc(C(F)(F)C(F)(F)F)c(C(F)(F)F)c1C(=O)Nc1ccc(Cl)c(C(=O)Nc2ccc(F)cc2F)c1", "note": "[Ia-22]", "chromatographic logP": 4.05}
{"smiles": "Cn1nc(C(F)(F)C(F)(F)F)c(C(F)(F)F)c1C(=O)Nc1ccc(Cl)c(C(=O)Nc2ccc(F)cc2)c1", "note": "[Ia-17]", "chromatographic logP": 3.89}
{"smiles": "Cn1nc(C(F)(F)C(F)(F)F)c(C(F)(F)F)c1C(=O)Nc1ccc(Cl)c(C(=O)Nc2cc(Cl)ccn2)c1", "note": "[Ia-26]", "chromatographic logP": 4.17}
